The values below come from patent US20170119806A1, “[…] LACTONE DERIVATIVES AND METHODS OF MAKING AND USING THEREOF” (OHIO STATE INNOVATION FOUNDATION, priority 2014, published 2017).

This series deals with primary NK cells cocultured with ARH-77 target cells. Briefly: NK cell cytotoxicity assay (51Cr release). The class given is cell-based, human. The settings on record: 10 μM PL-C 8 h, then 4 h coculture, with IL-12 or IL-15; listed as PL-C. How it is done: (A) Human […] were treated with DMSO vehicle control or 10 μM PL-C for 18 hours in the presence of IL-12 (10 ng/mL) or IL-15 (100 ng/mL), as described in FIG. 37C. The cells were harvested for intracellular flow cytometry to determine the frequency of IFN-γ^+ cells in CD56^−CD3^+[…] or CD56^−CD3^+CD8^+T. Representative data from 1 out of 5 donors are shown. (B) Purified primary NK cells were treated with IL-12 (10 ng/mL) or IL-15 (100 ng/mL) with or without 10 μM PL-C for 8 hours and were sequentially co-cultured with […] labeled ARH-77 cells at various effector/target cell ratios for additional 4 hours. ^51Cr release was measured by a TopCount counter. Data shown are the means of 3 donors. […] Error bars represent S.D. (C) Purified primary NK cells were treated with 10 μM PL-C in the presence of IL-12 (10 ng/mL) (top) or IL-15 (100 ng/mL) (bottom) for 12 hours, and cell pellets were harvested for detecting granzyme A (GZMA), granzyme B (GZMB), perforin (PRF1) and Fas (Fasl) mRNA expression level by real-time RT-PCR. Data shown are the means of 6 donors. p>0.05, vehicle control versus PL-C in all panels. Error bars represent S.D.
Cytotoxicity assay. Cytotoxicity assay was performed as described previously (Yu J et al. Immunity 2006, 24, 575-590; Yu J et al. Blood 2010, 115, 274-281). […] The release of ^51Cr was counted on a TopCount counter (Canberra Packard, Meriden, Conn.). […]

“Also recorded” adds a separate entry of the source.

For the compound `COc1cc2c(OC3OCC(O)C(O)C3O)c3c(c(-c4ccc5c(c4)OCO5)c2cc1OC)C(=O)OC3` (stereo not shown) [Compound 4, Phyllanthusmin C], the NK cell cytotoxicity entry is on record as “no statistically significant difference; also recorded: little or no; also recorded: did not activate NK cell cytotoxicity; also recorded: limited effect on NK cytotoxicity”.
